In the supplement of paper PMC10627819:

How the values were obtained:
Assay in all cases: fitness (endpoint OD595 vs no drug) (fraction); higher = more growth
S. aureus Newman = system: S. aureus Newman
Summary of the method: (§1)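 Growth medium was TSB, LB Lennox or CY, and plates were kept at 37 °C. Inoculation was at OD595 0.01 in 384-well plates, at 30 µl per well or 55 µl for S. pneumoniae. OD595 was monitored every 30 min for 14 h and background-subtracted using the first reading. Fitness is the optical density on entering stationary phase divided by the robust mean of no-drug controls, with values capped at 1.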

S. aureus DSM 20231 = system: S. aureus DSM 20231
Summary of the method: as §1

B. subtilis 168 = system: B. subtilis 168
Summary of the method: as §1

S. pneumoniae D39V = system: S. pneumoniae D39V
Summary of the method: as §1
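Further: OD595 on entry to stationary phase over no-drug wells; at most 1.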

N[C@@H]1CONC1=O [Cycloserine D] + COc1cccc2c1C(=O)c1c(O)c3c(c(O)c1C2=O)C[C@@](O)(C(=O)CO)C[C@@H]3O[C@H]1C[C@H](N)[C@H](O)[C@H](C)O1 [Doxorubicin]
fitness
Details	first compound 0.125 µg/mL	first compound 0.25 µg/mL	first compound 0.375 µg/mL	first compound 0.5 µg/mL	first compound 0.75 µg/mL	first compound 1.5 µg/mL
B. subtilis 168, partner 0.625 µg/mL	0.976	0.959	–	0.921	–	–
B. subtilis 168, partner 1.25 µg/mL	0.919	0.939	–	0.891	–	–
B. subtilis 168, partner 2.5 µg/mL	0.754	0.704	–	0.722	–	–
S. aureus DSM 20231, partner 0.625 µg/mL	–	–	0.942	–	0.898	0.905
S. aureus DSM 20231, partner 1.25 µg/mL	–	–	0.867	–	0.891	0.953
S. aureus DSM 20231, partner 2.5 µg/mL	–	–	0.861	–	0.841	0.774
S. aureus Newman, partner 0.625 µg/mL	–	–	0.796	–	0.809	0.827
S. aureus Newman, partner 1.25 µg/mL	–	–	0.797	–	0.797	0.799
S. aureus Newman, partner 2.5 µg/mL	–	–	0.748	–	0.75	0.771

O=C(N[C@H](CO)[C@H](O)c1ccc([N+](=O)[O-])cc1)C(Cl)Cl [Chloramphenicol] + CO[C@@]12[C@H](COC(N)=O)C3=C(C(=O)C(C)=C(N)C3=O)N1C[C@@H]1N[C@@H]12 [Mitomycin C]
fitness
Details	first compound 0.75 µg/mL	first compound 1.5 µg/mL	first compound 3 µg/mL
S. aureus DSM 20231, partner 0.0156 µg/mL	0.598	0.431	0.0667
S. aureus DSM 20231, partner 0.0312 µg/mL	0.572	0.367	0.0823
S. aureus DSM 20231, partner 0.0625 µg/mL	0.453	0.245	0.0494
S. aureus Newman, partner 0.0156 µg/mL	0.577	0.442	0.259
S. aureus Newman, partner 0.0312 µg/mL	0.537	0.363	0.144
S. aureus Newman, partner 0.0625 µg/mL	0.399	0.3	0.0938

O=C(O[C@@H]1Cc2c(O)cc(O)cc2O[C@@H]1c1cc(O)c(O)c(O)c1)c1cc(O)c(O)c(O)c1 [EGCG] + CO[C@@]12[C@H](COC(N)=O)C3=C(C(=O)C(C)=C(N)C3=O)N1C[C@@H]1N[C@@H]12 [Mitomycin C]
fitness
Details	first compound 12.5 µg/mL	first compound 25 µg/mL	first compound 50 µg/mL
S. aureus DSM 20231, partner 0.0156 µg/mL	0.587	0.553	–
S. aureus DSM 20231, partner 0.0312 µg/mL	0.595	0.574	–
S. aureus DSM 20231, partner 0.0625 µg/mL	0.507	0.483	–
S. aureus Newman, partner 0.0156 µg/mL	0.541	0.611	0.628
S. aureus Newman, partner 0.0312 µg/mL	0.547	0.528	0.488
S. aureus Newman, partner 0.0625 µg/mL	0.457	0.397	0.459
S. pneumoniae D39V, partner 0.001075 µg/mL	0.877	0.9	0.926
S. pneumoniae D39V, partner 0.002 µg/mL	0.77	–	0.777
S. pneumoniae D39V, partner 0.00215 µg/mL	0.783	0.902	–
S. pneumoniae D39V, partner 0.004 µg/mL	0.793	0.685	0.646
S. pneumoniae D39V, partner 0.0043 µg/mL	–	0.747	0.881
S. pneumoniae D39V, partner 0.008 µg/mL	0.422	0.379	0.285
